According to US20250019341A1, “COMPOUNDS AND METHOD OF USE THEREOF FOR TREATING BACTERIAL DISEASES” (PEKING UNIVERSITY, priority 2021, published 2025):
Where two headings read alike, the source gives them in different places.

Experiments:
[1] = system: Pst DC3000 TTSS injectisome (Hrp pilus) assembly; assay type: cell-based, P. syringae; conditions: 0.2 mM, TEM
[2] = system: Pst DC3000 injectisome structural proteins (HrpA, HrcQb); assay: Injectisome structural proteins in cellular and membrane fractions (quantitative proteomics, immunoblot); assay type: cell-based, P. syringae; conditions: 0.2 mM
Description: To isolate the membrane fraction, bacterial cells were harvested, washed with 10 mM Tris-HCl at pH 8.0, centrifuged and the supernatants were carefully discarded. The cell pellets were then resuspended in spheroplast buffer (20 mM Tris pH 8.0, 20% sucrose, 1 mM Na-EDTA), incubated for 10 min and centrifuged. The pellets were then resuspended in ice hypotonic solution (sterile water) and the sample were incubated for 10 min on ice. After centrifugation, the resulting pellets were resuspended in 10 mM Tris-HCl at pH 8.0 and sonicated. After centrifugation, the supernatants were carefully transferred to new tubes and centrifuged again for 40 min. The pellets were washed by sterile water and centrifuged for another 40 min. The pellets were resuspended in water as membrane proteins.

[3] = system: Xcc8004 effector AvrAc secretion; assay: AvrAC protein accumulation and secretion of Xcc8004 (immunoblot); assay type: cell-based; conditions: 24 h incubation, versus untreated bacteria
Description: To determine AvrAC protein accumulation and secretion, Xcc8004 strain expressing HA-tagged AvrAC was cultivated at 28° C. in NYG rich medium (3 g/L yeast extract, 5 g/L peptone, 20 g/L glycerol, pH 7.0). […] Total and supernatants protein were analyzed by immunoblot by indicated antibodies.

P. actinidiae = assay: Bacterial canker of kiwifruit, leaf inoculation; assay type: in vivo; conditions: 1 mM, sprayed with bacteria on leaves
R. solanacearum = assay type: in vivo, tomato; conditions: 1 mM, soil drenching, versus solvent
[4] = system: Pst DC3000 TTSS gene transcription (avrPto, hrpL)
[5] = system: P. syringae TTSS secretion (AvrPto, Pst DC3000); conditions: for inhibition of AvrPto secretion in Pst DC3000: supernatant protein, indicated concentrations or dilutions; for inhibition of AvrPto secretion in Pst DC3000 / abundance of AvrPto in total protein (bacteria): immunoblot; for abundance of AvrPto in total protein (bacteria): total / intracellular protein
[6] = system: S. typhimurium effector SopF secretion; assay: SopF protein accumulation and secretion of Salmonella Typhimurium (immunoblot); assay type: cell-based, Salmonella Typhimurium 14028S; conditions: 24 h incubation, versus untreated bacteria
Description: To determine SopF protein accumulation and secretion, Salmonella Typhimurium 14028S expressing His-tagged SopF was cultivated at 37° C. in LB medium and then subcultured (1:100) in fresh 30 mL LB medium with erucamide or solvent to an OD600 of 0.2. After induction with 0.5 mM IPTG, whole cells and culture supernatants were separated by centrifugation at 5000 RPM for 10 min. The pellet was resuspended by PBS as cytoplasmic protein sample. The supernatants were filtered (0.22 μm pore-size) and then precipitated by adding trichloroacetic acid at a final concentration of 10% v/v, followed by incubation at 4° C. overnight and centrifugation (20000 g, 4° C., 30 min). The pellet was washed twice by cold acetone and analyzed by immunoblot using anti-His antibodies. For control, anti-DnaK antibodies were used.

Pst DC3000 = assay: Growth curve of Pst DC3000 in KB medium; assay type: cell-based, P. syringae; conditions: 150 μM
[7] = system: Xanthomonas oryzae pv. oryzae (Xoo) isolate P6; assay type: in vivo, rice; conditions: 1 mM, Xoo P6, leaf clipping, 12 days after inoculation, versus solvent
Pst DC3000 hrcQ mutant = assay: Bacterial growth assay on N. benthamiana leaves; assay type: in vivo; conditions: 150 μM
[8] = system: Pst T1 effector AvrPto secretion; assay: AvrPto secretion of Pst T1 (immunoblot); assay type: cell-based; conditions: 24 h incubation, versus untreated bacteria

CCCCCCCC/C=C\CCCCCCCCCCCC(N)=O (single isomer, unassigned) [Compound T3SI-1, erucamide]
flagella production [1]: slightly blocked | Hrp pilus (TTSS injectisome) assembly ([1]; listed as Erucamide): inhibited | Hrp pilus (TTSS injectisome) assembly ([1]; listed as erucamide): significantly inhibited | bacteria that had Hrp pilus ([1]; erucamide treatment group): 3.3% | bacteria that had flagella ([1]; erucamide treatment group): 56.7% | HrpA and HrcQb accumulation in membrane ([2]; immunoblot): inhibited | levels of HrpA and HrcQb in cellular protein ([2]; immunoblot): did not change | amount of injectisome structure proteins in total protein ([2]; quantitative proteomics): not altered | injectisome structure protein accumulation in membrane ([2]; quantitative proteomics): reduced | secretion of AvrAc in Xcc8004 ([3]; listed as Erucamide): inhibits | secretion of AvrAc in Xcc8004 ([3]; listed as erucamide): significantly lower | disease symptoms caused by P. actinidiae on kiwifruit leaves (P. actinidiae; listed as Erucamide): decreased the disease symptoms | disease symptoms caused by P. actinidiae on kiwifruit leaves (P. actinidiae; listed as erucamide): significantly decrease the disease symptoms | disease symptoms / virulence of R. solanacearum on tomato (R. solanacearum; listed as Erucamide): decreased the virulence | disease symptoms / virulence of R. solanacearum on tomato (R. solanacearum; listed as erucamide): significantly decreased disease symptoms | transcription activity of TTSS genes avrPto and hrpL and house-keeping gene trp ([4]; Pst DC3000 reporter genes, luciferase activity): does not inhibit | concentration at which inhibition of AvrPto secretion was observed ([5]; Pst DC3000): 6 µM | inhibition of AvrPto secretion in Pst DC3000 [5]: effectively inhibited | inhibition of AvrPto secretion in Pst DC3000 ([5]; listed as Erucamide): inhibits | inhibition of AvrPto secretion in Pst DC3000 ([5]; listed as erucamide): gradually decreased with increasing concentration | inhibition of AvrPto secretion in Pst DC3000 ([5]; listed as fraction 9): high activity | secretion of SopF in S. typhimurium ([6]; listed as Erucamide): inhibits | secretion of SopF in S. typhimurium ([6]; listed as erucamide): significantly lower | growth of Pst DC3000 (Pst DC3000; listed as Erucamide): does not affect | growth of Pst DC3000 (Pst DC3000; listed as erucamide): no effect | rice bacterial blight lesion length ([7]; listed as Erucamide): protective effects | rice bacterial blight lesion length ([7]; listed as erucamide): significantly shorter | Pst DC3000 hrcQ growth on N. benthamiana (Pst DC3000 hrcQ mutant): inhibited | bacteria population in treated plants, less than in untreated plants (Pst DC3000 hrcQ mutant; N. benthamiana leaves, 3 days after inoculation): 5 fold | secretion of AvrPto in Pst T1 ([8]; listed as Erucamide): inhibits | secretion of AvrPto in Pst T1 ([8]; listed as erucamide): significantly lower

CCCCCC/C=C\CCCC(N)=O [Compound T3SI-29]
abundance of AvrPto in total protein (bacteria) [5]: decrease

CCCCCCCCCCCCCC(N)=O [Compound T3SI-25]
inhibition of AvrPto secretion in Pst DC3000 [5]: effectively inhibited

CCCCCCCC/C=C\CCCCCCCCCCCC(=O)NCCO [Compound T3SI-18, N-(2-hydroxyethyl)-13(Z)-Docosenamide]
inhibition of AvrPto secretion in Pst DC3000 [5]: effectively inhibited

C=CCCCCCCCCCCCC(N)=O [Compound T3SI-12, 13-Tetradecenoic acid amide]
inhibition of AvrPto secretion in Pst DC3000 [5]: effectively inhibited

CCCCCC/C=C\CCCCCCCC(N)=O [Compound T3SI-6]
abundance of AvrPto in total protein (bacteria) [5]: decrease

CCCCCCCCCCCCCCCCCC(N)=O [Compound T3SI-8]
inhibition of AvrPto secretion in Pst DC3000 [5]: effectively inhibited

CCCCCCCCCCCCCCCC(=O)NCCO [Compound T3SI-19, N-(2-hydroxyethyl)-Hexadecanamide]
inhibition of AvrPto secretion in Pst DC3000 [5]: effectively inhibited

CCCCCCCC/C=C\CCCCCCCCCCCC(=O)NCC [Compound T3SI-16, N-ethyl-13(Z)-Docosenamide]
inhibition of AvrPto secretion in Pst DC3000 [5]: effectively inhibited

CCCCCCCCCCCCCCCCCCCCCC(N)=O [Compound T3SI-7]
inhibition of AvrPto secretion in Pst DC3000 [5]: effectively inhibited

CCCCCCCC/C=C\CCCCCCCCCCCCNC(N)=O [Compound T3SI-14, N-(13Z)-13-Docosen-1-ylurea]
inhibition of AvrPto secretion in Pst DC3000 [5]: effectively inhibited

CCCCCCCC/C=C\CCCCCCCCCCCC(=O)NO [Compound T3SI-24, (Z)—N-hydroxydocos-13-enamide]
abundance of AvrPto in total protein (bacteria) [5]: decrease

CCCCCCCCCCCCCCCC(N)=O [Compound T3SI-9]
inhibition of AvrPto secretion in Pst DC3000 [5]: effectively inhibited

C[S+]([O-])CCCCN=C=S (stereo not shown) [SFN, reference compound]
P. syringae TTSS gene expression [4]: preferentially inhibits

CCCCCCCC/C=C\CCCCCCCC(N)=O [Compound T3SI-5]
abundance of AvrPto in total protein (bacteria) [5]: decrease

CCCCCCCC/C=C/CCCCCCCCCCCC(N)=O [Compound T3SI-2, (E)-13-docosenamide]
inhibition of AvrPto secretion in Pst DC3000 [5]: effectively inhibited

CCCCCCCCc1ccccc1CCCCCCCCCCCC(N)=O [Compound T3SI-21, 12-(2-octylphenyl)dodecanamide]
abundance of AvrPto in total protein (bacteria) [5]: decrease

CCCCCCCCc1ccc(CCCCCCCCCCCC(N)=O)cc1 [Compound T3SI-22, 12-(4-octylphenyl)dodecanamide]
abundance of AvrPto in total protein (bacteria) [5]: decrease

CCCCCCCCCCCC(N)=O [Compound T3SI-26]
inhibition of AvrPto secretion in Pst DC3000 [5]: effectively inhibited
